According to patent publication US12268676B2, “Antiviral applications of picolinic acid and its derivatives” (INDIAN INSTITUTE OF SCIENCE, priority 2021, dated 2025):
Structures can show the parent of a compound that is named as a salt.

How the values were obtained:
[1] = test system: pseudotyped SARS CoV-2 particles; test: microbe, parasite or virus in culture; format: cell-based; details: Severe acute respiratory syndrome coronavirus 2; read-out: inhibition of pseudotyped SARS CoV-2 virus entry
[2] = test system: R18 labelled PR8 WT virus; test: Influenza virus membrane fusion assay (R18 fluorescence); format: cell-based, Influenza A virus; details: 90 min
[3] = test system: SARS-CoV-2; test: SARS CoV-2 infection studies in the hamster model; format: in vivo, Syrian golden hamsters; details: CQ dosed therapeutically

Structure (SMILES): CN(C)C(=O)COC(=O)Cc1ccc(OC(=O)c2ccc(NC(=N)N)cc2)cc1 [CM, Camostat mesylate, reference compound]
- inhibition at 500 µM [1]: 60%

Structure (SMILES): CCN(CC)CCCC(C)Nc1ccnc2cc(Cl)ccc12 (centres unmarked) [CQ, Chloroquine, reference compound]
- inhibition at 10 µM [1]: 90%
- virus-entry associated increase in fluorescence intensity ([2]; 10 μM CQ): able to inhibit
- lung viral loads reduced by [3]: ~1 log

Structure (SMILES): Cl.N [NH4Cl, ammonium chloride]
- virus-entry associated increase in fluorescence intensity ([2]; 10 μM NH4Cl): able to inhibit
